From PubChem BioAssay (NCI)
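Cultured in 96-well plates, cells were exposed to test compound for 48 hours across five concentrations. Here, GI50 denotes the concentration required for 50% inhibition of growth. TGI denotes the concentration required for complete inhibition of growth.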

Tests used:
Assay in all cases: NCI anticancer screen, dose series, 48 h
TK-10 renal = system: TK-10 renal
HCT-15 colon = system: HCT-15 colon
COLO 205 colon = system: COLO 205 colon
HOP-62 NSCLC = system: HOP-62 NSCLC
SK-MEL-2 melanoma = system: SK-MEL-2 melanoma
SN12C renal = system: SN12C renal
OVCAR-5 ovarian = system: OVCAR-5 ovarian
HL-60(TB) leukemia = system: HL-60(TB) leukemia
MCF7 breast = system: MCF7 breast
HOP-92 NSCLC = system: HOP-92 NSCLC

| SMILES | GI50 (TK-10 renal) [µM] | TGI (TK-10 renal) [µM] | GI50 (HCT-15 colon) [µM] | TGI (HCT-15 colon) [µM] | GI50 (COLO 205 colon) [µM] | TGI (COLO 205 colon) [µM] | GI50 (HOP-62 NSCLC) [µM] | TGI (HOP-62 NSCLC) [µM] | GI50 (SK-MEL-2 melanoma) [µM] | TGI (SK-MEL-2 melanoma) [µM] | GI50 (SN12C renal) [µM] | TGI (SN12C renal) [µM] | GI50 (OVCAR-5 ovarian) [µM] | TGI (OVCAR-5 ovarian) [µM] | GI50 (HL-60(TB) leukemia) [µM] | TGI (HL-60(TB) leukemia) [µM] | GI50 (MCF7 breast) [µM] | TGI (MCF7 breast) [µM] | GI50 (HOP-92 NSCLC) [µM] | TGI (HOP-92 NSCLC) [µM] |
| --- | --- | --- | --- | --- | --- | --- | --- | --- | --- | --- | --- | --- | --- | --- | --- | --- | --- | --- | --- | --- |
| CCN(CC)CCNc1ccc(N=Nc2cnc3ccccc3c2)c2ccccc12 | 2.1 | 3.87 | 1.47 | 2.93 | 1.61 | 2.98 | 1.66 | 3.02 | 2.34 | 4.3 | 1.64 | 3.16 | 1.64 | 3.24 | 1.34 | 2.92 | 1.37 | 2.7 |  |  |
| CN(C)c1ccc2cc3c(cc2c1)Oc1ccccc1N3.[Cl][Zn][Cl] | 6.2 | 16.5 | 2.24 | 6.47 |  |  |  |  | 9.65 | 31.3 | 11.6 | 63.9 | 1.96 | 6.35 | 2.61 | 7.3 | 1.53 | 3.91 | 2.59 | 8.33 |
| COc1cc(C(=O)c2cnc(-c3ccc4cc[nH]c4c3)[nH]2)cc(OC)c1OC | 0.34 | 12.4 | 0.0381 | 4.96 | 0.0277 | 0.105 | 0.0354 | 6.5 |  |  | 0.066 | 14.7 | 0.225 | 23.9 | 0.0224 | 0.0535 | 0.0376 | 11.4 | 0.632 | 6.16 |
| CCOP(=O)(OCC)C(NC(c1ccccc1)c1ccccc1)c1ccsc1 (stereo unspecified) | 16.1 | 32.2 | 16.1 | 84.6 |  |  |  |  | 43.4 | > 100 | 16.7 | 30.3 | 16.9 | 32.6 | 23 | 56.9 | 24.2 | > 100 | 14.3 | 30.8 |
| Cc1ccc2c(c1)C(=O)/C(=C/c1cccc(OCC(=O)c3ccc(Cl)cc3)c1)CS2 | 14.1 | 39.5 | 2.74 | 15.3 | 9.31 | 35.8 | 13 | 30.6 | 8.03 | 22.3 | 14.6 | 62.7 | 15.7 | 30 | 2.95 | 13.4 | 3 | 11.3 |  |  |
